In patent US20170021014A1, “VACCINE ADJUVANTS FOR CYTOMEGALOVIRUS PREVENTION AND TREATMENT” (THE JOHNS HOPKINS UNIVERSITY, priority 2015, published 2017):

Columns and labels:
[1] = system: secreted IFN-β; assay: IFN-β specific ELISA of supernatants; format: cell-based, Human; conditions: MDP pretreatment 18 or 72 h, MOI 1, 24 h
Method: The effect of MDP pretreatment on levels of secreted IFN-β in supernatants from non-infected or HCMV-infected HFFs was measured by IFN-β specific ELISA kit (PBL Assay Science, Piscataway, N.J.).

[2] = system: pp28-luciferase Towne strain; assay: Virus titration of first cycle supernatants by plaque assay; format: cell-based, human cytomegalovirus; conditions: MDP-pretreated cells, plaques at 8 days
Method: Human Foreskin Fibroblasts (HFFs) passage 12-16 (ATCC, CRL-2088™) were grown in Dulbecco's Modified Eagle Medium (DMEM) containing 10% fetal bovine serum (FBS) (Gibco, Carlsbad, Calif.) in a 5% CO2 incubator at 37° C. The generation of NOD2-KD HFFs (HFF-shNOD2) and control cells (HFF-GIPZ) was reported. One day prior to infection or treatment, 8×10^4 cells were seeded into each well of 12-well tissue culture plates. Multiplicities of infection were specified for each experiment. The Towne HCMV strain was obtained from ATCC (VR-977). The pp28-luciferase Towne strain which expresses luciferase under the control of the pp28 late promoter has been described. Luciferase activity was measured at 72 or 96 hours post infection (hpi) using the Glomax-Multi+ Detection System (Promega, Madison, Wis.). In second cycle replication assays cell free supernatants from HFFs infected with pp28-luciferase Towne were collected 4 days post completion of first replication cycle (5-10% of total volume/well), and used for infection of fresh HFFs seeded into 12-well plates. […] Supernatants from the first cycle were also used to measure virus titer in 12-well plates and plaques were counted at day 8 post infection. […] The Johns Hopkins School of Medicine Office of Human Subject Research Institutional Review Board (IRB-X) determined that the research qualified for an exemption.

[3] = system: IFN-β mRNA; assay: qRT-PCR of IFN-β mRNA in HFFs; format: cell-based, Human
Method: Total RNA was isolated from cells using RNAeasy Mini kit (Qiagen, Georgetown, Md.) according to manufacturer's instructions. RevertAid first strand cDNA synthesis kit (Fermentas life sciences, Cromwell Park, Md.) was used to synthesize first strand cDNA from total RNA using oligo-dT primers. Negative reverse-transcriptase (−RT) reactions were included to ensure the specificity of qRT-PCR reactions. Synthesis of first strand cDNA from mRNA template was carried out at 42° C. for 1 h. Quantitative RT-PCR was performed using specific primers and SYBR green (Fermentas life science) with two-step cycling protocol (95° C. for 15 s, 60° C. for 1 min). All reactions were performed in triplicates and GAPDH was used as internal control. The expression level of the tested genes was normalized to the expression of GAPDH.

CC(=O)N[C@H]1C(O)O[C@H](CO)[C@@H](O)[C@@H]1O[C@H](C)C(=O)N[C@@H](C)C(=O)N[C@H](CCC(=O)O)C(N)=O (mixture of isomers) [MDP, Muramyl dipeptide]
secreted IFN-β [1]: increased with the duration of MDP-pretreatment
reduction in virus titer [2]: 6 fold
increase in IFN-β mRNA ([3]; HCMV-infected, MDP treatment, 4 hpi): 2 fold
induction of IFN-β mRNA ([3]; MDP after infection at MOI 0.1, 36 hpi (infection only 15-fold)): 170 fold
induction of IFN-β mRNA ([3]; MDP after infection at MOI 1, 36 hpi (infection only 300-fold)): 800 fold
IFN-β expression induction ([3]; MDP alone, compared to non-infected cells, 36 h): 4 fold
IFN-β mRNA ([3]; MDP pretreatment 72 h then HCMV MOI 1 for 24 h): significant induction
IFN-β mRNA ([3]; non-infected HFFs, MDP pretreatment 72 h): did not result in IFN-β induction
